# Reference: PubChem BioAssay AID1963963 (Molecular Pharmacology Branch, DTP, NCI, 2024)
# Where “and” joins values, the source holds several entries; their conditions need not be identical. Identical values can stand only once.
# System: 958667-338-R-J2-PDC tumor spheroids viability
# Test: Anticancer human tumor 958667-338-R-J2-PDC patient-derived colon adenocarcinoma cell line growth inhibition [PI3K]
# Details: spheroids with HUVEC and MSC; for viability, T/C: stronger effect = lower value
# Text: Combinatorial screen of targeted agents with the PI3K inhibitors inavolisib, alpelisib, duvelisib, and copanlisib in multi-cell type tumor spheroids
# A high-throughput screen of multi-cell type tumor spheroids was designed to identify active combinations of targeted small molecules and PI3K pathway inhibitors. Complex spheroids include a stromal component modeled by human endothelial cells (HUVEC) and fibroblasts modeled by human mesenchymal stem cells (MSCs). The concentration ranges selected for each drug and investigational agent were based upon clinically achievable concentrations if the clinical Cmax of the agent was known.
# Compounds. The drugs and investigational agents: inavolisib (NSC800729), alpelisib (NSC765974), duvelisib (NSC772469), copanlisib (NSC816437), ipatasertib (NSC767898), afuresertib (NSC778305), talazoparib (NSC767125), sapanisertib (NSC764658), selumetinib (NSC741078), tovorafenib (DAY101, NSC766906), vemurafenib (NSC761431), ravoxertinib (NSC781343), sotorasib (NSC818433), MRTX1133 (NSC 836407), abemaciclib (NSC 768073), palbociclib (NSC758247), venetoclax (NSC 766270), SY5609 (NSC837396), enzalutamide (NSC755605), and darolutamide (NSC825331), were obtained from the National Cancer Institute (NCI) Developmental Therapeutics Program Chemical Repository. The FDA-approved anticancer drug set is available from the NCI Developmental Therapeutics Program. […] The stock solutions were prepared in dimethyl sulfoxide (DMSO, Sigma-Aldrich, St. Louis, MO, cat. D2650) at 800-fold the tested concentration and stored at -70 degrees C prior to their use. All drugs and investigational agents were tested over a range starting from a high concentration at or near the clinical Cmax and decreasing in half-log increments. If the clinical Cmax for an agent had not been determined, the highest concentration tested was 10 microM.
# Cell Culture. All cells were maintained in an incubator at 37 degrees C and 5% CO2 with 95% humidity. The PDC lines were cultured according to standard operating procedures established by the NCI PDMR (https://pdmr.cancer.gov/sops/default.htm). All PDCs were thawed and cultured in Matrigel-coated flasks prepared with a working solution of 1X Ham's F-12 nutrient mix, without supplementation (Invitrogen, Waltham, MA, cat. 11765054), 100 U/mL penicillin-streptomycin (Invitrogen, cat. 15140122), and 2.5% Matrigel (Corning Inc., Corning, NY, cat. 354248) for the first three passages. The 354836-022-R-J1-PDC, 475296-252-R-J1-PDC, and 997726-040-R-J2-PDC lines were cultured in 6A media, which includes advanced DMEM/F-12 (Thermo Fisher Scientific, cat. 12634028), 10 mM HEPES (Thermo Fisher Scientific, cat. 15630080), 1X GlutaMAX supplement (Thermo Fisher Scientific, cat. 35050061), 0.1 mg/mL primocin (InvivoGen, San Diego, CA, cat. ant-pm-2), 10% defined fetal bovine serum, heat inactivated (HyClone Laboratories Inc., Logan, UT, cat. SH30070.03HI), 50% L-WRN conditioned media (ATCC, cat. CRL-3276), 1.25 mM N-Acetyl-L-cysteine (Sigma-Aldrich, cat. A9165), 10 mM nicotinamide (Sigma-Aldrich, cat. N0636), 1X B-27 supplement (Thermo Fisher Scientific, cat. 17504044), 1X N-2 supplement (Thermo Fisher Scientific, cat. 17502048), and 10 microM Y-27632 dihydrochloride (Tocris Bioscience, Bristol, United Kingdom, cat. 1254). The 624824-186-R-J2-PDC line was cultured in 6C/Colon 1B media, which includes all 6A media components plus 50 ng/mL human EGF recombinant protein (Thermo Fisher Scientific, cat. PHG0311). […]
# 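Also: spheroids exposed to compounds for seven days before readout.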
smiles,measurement,setting,value
CC(=O)c1c(C)c2cnc(Nc3ccc(N4CCNCC4)cn3)nc2n(C2CCCC2)c1=O + COc1c(OCCCN2CCOCC2)ccc2c3n(c(=NC(=O)c4cnc(N)nc4)nc12)CCN3,IC50,"curve of first compound, second compound 0.00316 µM",> 100 nM
same,IC50,"curve of first compound, second compound 0.01 µM",> 100 nM
same,IC50,"curve of first compound, second compound 0.0316 µM",> 100 nM
same,IC50,"curve of first compound, second compound 0.1 µM",> 100 nM
same,IC50,"curve of first compound, second compound 0.316 µM",< 0.316 nM
same,IC50,"curve of first compound, second compound 1 µM",< 0.316 nM
same,"viability, T/C","second compound 0.00316 µM, first compound 0.000316 µM",103%
same,"viability, T/C","second compound 0.00316 µM, first compound 0.001 µM",101%
same,"viability, T/C","second compound 0.00316 µM, first compound 0.00316 µM",97.2%
same,"viability, T/C","second compound 0.00316 µM, first compound 0.01 µM",98.2%
same,"viability, T/C","second compound 0.00316 µM, first compound 0.0316 µM",108%
same,"viability, T/C","second compound 0.00316 µM, first compound 0.1 µM",62.8%
same,"viability, T/C","second compound 0.01 µM, first compound 0.000316 µM",82.9%
same,"viability, T/C","second compound 0.01 µM, first compound 0.001 µM",67.7%
same,"viability, T/C","second compound 0.01 µM, first compound 0.00316 µM",90.8%
same,"viability, T/C","second compound 0.01 µM, first compound 0.01 µM",79.1%
same,"viability, T/C","second compound 0.01 µM, first compound 0.0316 µM",83.3%
same,"viability, T/C","second compound 0.01 µM, first compound 0.1 µM",69.9%
same,"viability, T/C","second compound 0.0316 µM, first compound 0.000316 µM",75.7%
same,"viability, T/C","second compound 0.0316 µM, first compound 0.001 µM",94.8%
same,"viability, T/C","second compound 0.0316 µM, first compound 0.00316 µM",75.5%
same,"viability, T/C","second compound 0.0316 µM, first compound 0.01 µM",56.7%
same,"viability, T/C","second compound 0.0316 µM, first compound 0.0316 µM",67.3%
same,"viability, T/C","second compound 0.0316 µM, first compound 0.1 µM",56.3%
same,"viability, T/C","second compound 0.1 µM, first compound 0.000316 µM",64.9%
same,"viability, T/C","second compound 0.1 µM, first compound 0.001 µM",61.8%
same,"viability, T/C","second compound 0.1 µM, first compound 0.00316 µM",51.5%
same,"viability, T/C","second compound 0.1 µM, first compound 0.01 µM",70.2%
same,"viability, T/C","second compound 0.1 µM, first compound 0.0316 µM",62.7%
same,"viability, T/C","second compound 0.1 µM, first compound 0.1 µM",50.7%
same,"viability, T/C","second compound 0.316 µM, first compound 0.000316 µM",37.2%
same,"viability, T/C","second compound 0.316 µM, first compound 0.001 µM",42.5%
same,"viability, T/C","second compound 0.316 µM, first compound 0.00316 µM",49.1%
same,"viability, T/C","second compound 0.316 µM, first compound 0.01 µM",42.9%
same,"viability, T/C","second compound 0.316 µM, first compound 0.0316 µM",35%
same,"viability, T/C","second compound 0.316 µM, first compound 0.1 µM",26.6%
same,"viability, T/C","second compound 1 µM, first compound 0.000316 µM",17.8%
same,"viability, T/C","second compound 1 µM, first compound 0.001 µM",20.3%
same,"viability, T/C","second compound 1 µM, first compound 0.00316 µM",18%
same,"viability, T/C","second compound 1 µM, first compound 0.01 µM",20.3%
same,"viability, T/C","second compound 1 µM, first compound 0.0316 µM",22.3%
same,"viability, T/C","second compound 1 µM, first compound 0.1 µM",17.2%
CC(C)NCC(C(=O)N1CCN(c2ncnc3c2C(C)CC3O)CC1)c1ccc(Cl)cc1 (centres undefined),"viability, T/C",compound 0.0316 µM,99.2% and 102% and 101%
same,"viability, T/C",compound 0.1 µM,92.6% and 114% and 87.9%
same,"viability, T/C",compound 0.316 µM,101% and 113% and 108%
same,"viability, T/C",compound 1 µM,78.6% and 73.4% and 101%
same,"viability, T/C",compound 3.16 µM,78.8% and 72.3% and 119%
same,"viability, T/C",compound 10 µM,72.2% and 69.7% and 80.9%
same,IC50,curve of compound,> 10000 nM
